Values quoted from earlier work in publication PMC8287861 (Frontiers in Microbiology, 2021).
Values after ≈ are worked out from the molar mass of the structure shown. Like-named read-outs stand apart in the source and are kept apart here. One block for each molecule: values may come before it.

Legend:
Pseudomonas aeruginosa [1] = system: Pseudomonas aeruginosa; design: method as in Lomovskaya et al. (2021); settings: panel reflecting current MIC distribution (N = 500); QPX7728 at 8 μg/ml; ref Lomovskaya et al. (2021)
Pseudomonas aeruginosa [2] = system: Pseudomonas aeruginosa; design: method as in Lomovskaya et al. (2021); settings: challenge panel, QPX7728 at 8 μg/ml, ref Lomovskaya et al. (2021)
[3] = system: KPC-producing strains of Klebsiella pneumoniae and blaKPC mutants; design: method as in Nelson et al., 2019; settings: ref Nelson et al., 2019
[4] = system: carbapenem resistant Acinetobacter baumannii; settings: ref Nelson et al., 2020b
β-lactamases = settings: ref Hecker et al. (2020)
[5] = system: Enterobacterales producing ESBLs and carbapenemases; design: method as in Rubio-Aparicio et al., 2019; settings: ref Rubio-Aparicio et al., 2019
[6] = 275 clinical isolates, meropenem alone

MIC50 (Pseudomonas aeruginosa [1]): 0.5 µg/mL (≈ 0.75 µM)
MIC90 (Pseudomonas aeruginosa [1]): 4 µg/mL (≈ 6 µM)
MIC50 (Pseudomonas aeruginosa [2]; All (N = 290)): 4 µg/mL (≈ 6 µM)
MIC90 (Pseudomonas aeruginosa [2]; All (N = 290)): >64 µg/mL
MIC50 (Pseudomonas aeruginosa [2]; MBL (N = 61)): >64 µg/mL
MIC90 (Pseudomonas aeruginosa [2]; MBL (N = 61)): >64 µg/mL
MIC50 (Pseudomonas aeruginosa [2]; No MBL (N = 229)): 2 µg/mL (≈ 3 µM)
MIC90 (Pseudomonas aeruginosa [2]; No MBL (N = 229)): >64 µg/mL
Compound: Cn1c(N)c(NC(=O)NCCN)c[n+]1CC1=C(C(=O)O)N2C(=O)[C@@H](NC(=O)/C(=N\OC(C)(C)C(=O)[O-])c3nsc(N)n3)[C@H]2SC1 [Ceftolozane, ceftolozane]

Compound: C[C@@H](O)[C@H]1C(=O)N2C(C(=O)O)=C(S[C@@H]3CN[C@H](C(=O)N(C)C)C3)[C@H](C)[C@H]12 [Meropenem, meropenem]
MIC ([3]; KP1252, KPC-3, TEM-1, SHV-11/FL): 64 µg/mL (≈ 167 µM)
MIC ([3]; KPM3191, KPC-3:: DDK duplication at aa#831 (KPC-29)): 4 µg/mL (≈ 10.4 µM)
MIC ([3]; KPM3192, KPC-3:: D179Y (KPC-31)): 0.5 µg/mL (≈ 1.3 µM)
MIC ([3]; KPM3200, KPC-3::duplication of EAVI (aa#278)): 64 µg/mL (≈ 167 µM)
MIC ([3]; KPM3205, KPC-3 ::duplication of KKDY (aa#273)): 16 µg/mL (≈ 41.7 µM)
MIC ([3]; KPM3210, KPC-2::D179N): 4 µg/mL (≈ 10.4 µM)
MIC ([3]; KPM3212, deletion of ELNSAI at aa#497): 1 µg/mL (≈ 2.61 µM)
MIC ([3]; KPM3213, KPC-2::D179Y (KPC-31), selected from KP1099): 4 µg/mL (≈ 10.4 µM)
MIC ([3]; KPM3214, KPC-2::D179A): 2 µg/mL (≈ 5.22 µM)
MIC ([3]; KPM3493, KPC-3::duplication of EL at aa#164 (KPC-25)): 1 µg/mL (≈ 2.61 µM)
MIC ([3]; KPM3494, KPC-3::R167S): 32 µg/mL (≈ 83.4 µM)
MIC ([3]; KPM3495, KPC-3::A175V): 32 µg/mL (≈ 83.4 µM)
MIC ([3]; KPM3511, KPC-3::P174Q): 4 µg/mL (≈ 10.4 µM)
MIC ([3]; KPM3512, KPC-3:: P174L): 8 µg/mL (≈ 20.9 µM)
MIC50 [4, 6]: 64 µg/mL (≈ 167 µM)
MIC90 [4, 6]: > 64 µg/mL
MIC90 of meropenem ([4]; with QPX7728 at 4 μg/ml): 8 µg/mL
MIC90 of meropenem ([4]; with QPX7728 at 8 μg/ml): 4 µg/mL
increase in meropenem potency ([4]; with increasing concentrations of QPX7728 (1–16 μg/ml)): 8–16 fold
MIC50 (Pseudomonas aeruginosa [1]): 0.5 µg/mL (≈ 1.3 µM)
MIC90 (Pseudomonas aeruginosa [1]): 16 µg/mL (≈ 41.7 µM)
MIC50 (Pseudomonas aeruginosa [2]; All (N = 290)): 16 µg/mL (≈ 41.7 µM)
MIC90 (Pseudomonas aeruginosa [2]; All (N = 290)): >64 µg/mL
MIC50 (Pseudomonas aeruginosa [2]; MBL (N = 61)): >64 µg/mL
MIC90 (Pseudomonas aeruginosa [2]; MBL (N = 61)): >64 µg/mL
MIC50 (Pseudomonas aeruginosa [2]; No MBL (N = 229)): 16 µg/mL (≈ 41.7 µM)
MIC90 (Pseudomonas aeruginosa [2]; No MBL (N = 229)): 64 µg/mL (≈ 167 µM)

Compound: CSCC(=O)N[C@H]1Cc2ccc(F)c(C(=O)O)c2OB1O [RPX7323]
β-lactamase inhibition (in words) (β-lactamases): capable of potently inhibiting serine enzymes from classes A-D

Compound: COc1ccc2c(c1C(=O)O)OB(O)[C@@H](Sc1nncs1)C2 [RPX7546]
β-lactamase inhibition (in words) (β-lactamases): improved potency against MBLs

MIC50 ([5]; All Enterobacterales (N = 972)): 0.25 µg/mL (≈ 0.652 µM)
MIC90 ([5]; All Enterobacterales (N = 972)): > 64 µg/mL
MIC50 ([5]; CRE KPC (N = 292)): 64/>64 μg/ml
MIC90 ([5]; CRE KPC (N = 292)): 64/>64 μg/ml
MIC50 ([5]; CRE MBL (N = 226)): 32 µg/mL (≈ 83.4 µM)
MIC90 ([5]; CRE MBL (N = 226)): > 64 µg/mL
MIC50 ([5]; CRE OXA-48 (N = 47)): 32 µg/mL (≈ 83.4 µM)
MIC90 ([5]; CRE OXA-48 (N = 47)): 64 µg/mL (≈ 167 µM)
MIC50 ([5]; ESBLs, no CRE (N = 371)): ≤ 0.06 µg/mL
MIC90 ([5]; ESBLs, no CRE (N = 371)): 0.5 µg/mL (≈ 1.3 µM)
MIC50 ([5]; Non-CP CRE): 8 µg/mL (≈ 20.9 µM)
MIC90 ([5]; Non-CP CRE): 16 µg/mL (≈ 41.7 µM)
Compound: C[C@@H](O)[C@H]1C(=O)N2C(C(=O)O)=C(SC3CN(C4=NCCS4)C3)[C@H](C)[C@H]12 [Tebipenem]
